From patent US9050341B2, “Methods of treating drug resistant and other tumors by administering 6,7-dialkoxy quinazoline derivatives” (NATCO PHARMA LIMITED, priority 2009, dated 2015)

What was measured:
Experiment in all cases: KinomeScan kinase profiling
Assay type in all cases: binding
ABL1 (H396P) = biological target: T1, ABL1 (H396P) (Homo sapiens, UniProt P00519, H396P)
T1 construct: host or cells: E. coli host derived from BL21 (T7 phage lysate)
Outline: (§1)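 Kinases were expressed as T7 phage fusions in a BL21-derived E. coli host and the cleared lysates were used. Ligand beads were blocked with biotin and buffer (1% BSA, 0.05% Tween 20, 1 mM DTT). Compounds came from 40× DMSO stocks, and phage in the eluates was titred by qPCR.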

ADCK4 = biological target: T2, ADCK4 (Homo sapiens, UniProt Q96D53)
T2 construct: host or cells: E. coli host derived from BL21 (T7 phage lysate)
Outline: as §1

AXL = biological target: T3, AXL (Homo sapiens, UniProt P30530)
T3 construct: purchased Ambit Biosciences Corp (KinomeScan); host or cells: E. coli host derived from the BL21 strain, T7 phage
Outline: as §1

CAMK2A = biological target: T4, CAMK2A (Homo sapiens, UniProt Q9UQM7)
T4 construct: purchased Ambit Biosciences Corp (KinomeScan); host or cells: E. coli host derived from the BL21 strain, T7 phage
Outline: as §1

CDK11 = biological target: T5, CDK11 (Homo sapiens, UniProt Q9BWU1)
T5 construct: host or cells: T7 phage in E. coli (BL21-derived)
Outline: as §1

CSNK1D = biological target: T6, CSNK1D (Homo sapiens, UniProt P48730)
T6 construct: host or cells: T7 phage in E. coli (BL21-derived)
Outline: as §1

EGFR (E746-A750del) = biological target: T7, EGFR (E746-A750del) (Homo sapiens, UniProt P00533, DEL746-750)
T7 construct: purchased Ambit Biosciences Corp (KinomeScan); host or cells: T7 phage in E. coli host derived from BL21
Outline: as §1

EGFR (L861Q) = biological target: T8, EGFR (L861Q) (Homo sapiens, UniProt P00533, L861Q)
T8 construct: host or cells: E. coli host derived from BL21, T7 phage lysate
Outline: as §1

EPHB2 = biological target: T9, EPHB2 (Homo sapiens, UniProt P29323)
T9 construct: host or cells: E. coli host derived from BL21, T7 phage lysate
Outline: as §1

EPHB4 = biological target: T10, EPHB4 (Homo sapiens, UniProt P54760)
T10 construct: host or cells: E. coli host derived from BL21, T7 phage lysate
Outline: as §1

FER = biological target: T11, FER (Homo sapiens, UniProt P16591)
T11 construct: host or cells: E. coli host derived from BL21, infected with T7 phage
Outline: as §1

[1] = biological target: T12, JAK1 (JH1domain-catalytic) (Homo sapiens, UniProt P23458)
T12 construct: JAK1 (JH1domain-catalytic); host or cells: T7 phage in E. coli host derived from BL21
Outline: as §1

LIMK1 = biological target: T13, LIMK1 (Homo sapiens, UniProt P53667)
T13 construct: host or cells: T7 phage in E. coli host derived from BL21
Outline: as §1

MEK1 = biological target: T14, MEK1 (Homo sapiens, UniProt Q02750)
T14 construct: host or cells: E. coli derived from BL21, infected with T7 phage
Outline: as §1

MST4 = biological target: T15, MST4 (Homo sapiens, UniProt Q9P289)
T15 construct: host or cells: T7 phage in E. coli host derived from BL21
Outline: as §1

NDR2 = biological target: T16, NDR2 (Homo sapiens, UniProt Q9Y2H1)
T16 construct: host or cells: T7 phage in E. coli host derived from BL21
Outline: as §1

PRKCQ = biological target: T17, PRKCQ (Homo sapiens, UniProt Q04759)
T17 construct: purchased Ambit Biosciences Corp (KinomeScan); host or cells: E. coli host derived from BL21, infected with T7 phage
Outline: as §1

PRKG2 = biological target: T18, PRKG2 (Homo sapiens, UniProt Q13237)
T18 construct: purchased Ambit Biosciences Corp (KinomeScan); host or cells: E. coli host derived from BL21, infected with T7 phage
Outline: as §1

RET (V804L) = biological target: T19, RET (V804L) (Homo sapiens, UniProt P07949, V804L)
T19 construct: host or cells: E. coli host derived from BL21, T7 phage lysate
Outline: as §1

STK35 = biological target: T20, STK35 (Homo sapiens, UniProt Q8TDR2)
T20 construct: host or cells: E. coli host derived from the BL21 strain, T7 phage lysate
Outline: as §1

SYK = biological target: T21, SYK (Homo sapiens, UniProt P43405)
T21 construct: host or cells: E. coli host derived from the BL21 strain, T7 phage lysate
Outline: as §1

TNK1 = biological target: T22, TNK1 (Homo sapiens, UniProt Q13470)
T22 construct: purchased Ambit Biosciences Corp (KinomeScan); host or cells: E. coli host derived from the BL21 strain (T7 phage lysate)
Outline: as §1

T6 sequence (P48730 whole entry): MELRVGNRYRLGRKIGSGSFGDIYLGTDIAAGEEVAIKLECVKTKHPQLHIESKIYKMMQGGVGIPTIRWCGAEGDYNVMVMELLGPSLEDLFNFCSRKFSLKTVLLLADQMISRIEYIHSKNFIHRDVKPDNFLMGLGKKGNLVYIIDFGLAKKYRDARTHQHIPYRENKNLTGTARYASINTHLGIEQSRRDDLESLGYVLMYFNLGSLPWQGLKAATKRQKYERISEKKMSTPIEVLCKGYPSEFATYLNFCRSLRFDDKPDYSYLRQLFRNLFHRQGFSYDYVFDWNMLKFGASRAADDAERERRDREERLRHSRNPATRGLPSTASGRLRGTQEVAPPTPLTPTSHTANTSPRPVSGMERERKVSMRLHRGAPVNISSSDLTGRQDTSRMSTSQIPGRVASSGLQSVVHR
T22 sequence (Q13470 whole entry): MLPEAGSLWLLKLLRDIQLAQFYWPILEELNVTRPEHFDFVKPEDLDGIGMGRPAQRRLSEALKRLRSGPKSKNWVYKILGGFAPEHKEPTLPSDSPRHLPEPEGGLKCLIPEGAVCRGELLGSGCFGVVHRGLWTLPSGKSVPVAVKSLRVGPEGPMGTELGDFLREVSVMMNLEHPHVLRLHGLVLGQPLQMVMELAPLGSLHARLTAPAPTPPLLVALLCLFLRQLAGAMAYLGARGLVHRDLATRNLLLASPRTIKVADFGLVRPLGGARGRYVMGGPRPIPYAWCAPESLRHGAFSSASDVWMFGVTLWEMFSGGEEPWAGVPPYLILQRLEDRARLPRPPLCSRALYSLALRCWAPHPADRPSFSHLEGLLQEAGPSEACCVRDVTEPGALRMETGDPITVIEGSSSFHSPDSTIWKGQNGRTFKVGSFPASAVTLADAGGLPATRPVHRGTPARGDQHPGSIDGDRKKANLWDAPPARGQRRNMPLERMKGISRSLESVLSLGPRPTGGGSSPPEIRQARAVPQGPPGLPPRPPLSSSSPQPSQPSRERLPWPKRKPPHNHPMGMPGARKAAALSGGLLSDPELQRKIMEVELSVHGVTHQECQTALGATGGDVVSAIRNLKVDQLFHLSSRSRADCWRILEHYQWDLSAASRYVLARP
T5 sequence (Q9BWU1 whole entry): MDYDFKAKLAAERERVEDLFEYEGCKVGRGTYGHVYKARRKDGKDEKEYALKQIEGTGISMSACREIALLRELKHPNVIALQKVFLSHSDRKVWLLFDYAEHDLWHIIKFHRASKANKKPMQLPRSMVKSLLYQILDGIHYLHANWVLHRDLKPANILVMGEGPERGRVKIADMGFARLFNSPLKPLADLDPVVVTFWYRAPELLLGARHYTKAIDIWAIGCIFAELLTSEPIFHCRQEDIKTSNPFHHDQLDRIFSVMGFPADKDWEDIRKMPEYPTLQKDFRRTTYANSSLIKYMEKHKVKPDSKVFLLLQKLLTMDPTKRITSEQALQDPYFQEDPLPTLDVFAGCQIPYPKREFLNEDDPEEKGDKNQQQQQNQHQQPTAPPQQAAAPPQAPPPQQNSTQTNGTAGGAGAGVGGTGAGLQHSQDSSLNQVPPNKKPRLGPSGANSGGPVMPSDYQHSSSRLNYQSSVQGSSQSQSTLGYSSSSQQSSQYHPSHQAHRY
T13 sequence (P53667 whole entry): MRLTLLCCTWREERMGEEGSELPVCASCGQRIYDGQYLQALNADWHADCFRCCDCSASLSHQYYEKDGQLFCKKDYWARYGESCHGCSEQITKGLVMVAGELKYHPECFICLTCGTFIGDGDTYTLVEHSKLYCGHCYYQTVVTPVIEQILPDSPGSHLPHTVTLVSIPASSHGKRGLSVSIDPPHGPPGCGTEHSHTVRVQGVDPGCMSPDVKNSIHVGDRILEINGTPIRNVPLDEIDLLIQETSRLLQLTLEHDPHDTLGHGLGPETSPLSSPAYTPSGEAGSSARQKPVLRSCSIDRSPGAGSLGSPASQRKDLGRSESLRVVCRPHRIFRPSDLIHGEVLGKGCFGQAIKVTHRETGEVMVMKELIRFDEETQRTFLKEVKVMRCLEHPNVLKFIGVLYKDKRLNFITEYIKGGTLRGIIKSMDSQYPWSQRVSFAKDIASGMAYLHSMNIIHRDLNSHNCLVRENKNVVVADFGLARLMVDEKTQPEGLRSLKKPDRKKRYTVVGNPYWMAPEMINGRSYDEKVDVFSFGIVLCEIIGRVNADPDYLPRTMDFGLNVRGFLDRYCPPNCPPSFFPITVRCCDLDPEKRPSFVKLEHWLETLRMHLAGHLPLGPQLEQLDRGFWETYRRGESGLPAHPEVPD
T10 sequence (P54760 16-987): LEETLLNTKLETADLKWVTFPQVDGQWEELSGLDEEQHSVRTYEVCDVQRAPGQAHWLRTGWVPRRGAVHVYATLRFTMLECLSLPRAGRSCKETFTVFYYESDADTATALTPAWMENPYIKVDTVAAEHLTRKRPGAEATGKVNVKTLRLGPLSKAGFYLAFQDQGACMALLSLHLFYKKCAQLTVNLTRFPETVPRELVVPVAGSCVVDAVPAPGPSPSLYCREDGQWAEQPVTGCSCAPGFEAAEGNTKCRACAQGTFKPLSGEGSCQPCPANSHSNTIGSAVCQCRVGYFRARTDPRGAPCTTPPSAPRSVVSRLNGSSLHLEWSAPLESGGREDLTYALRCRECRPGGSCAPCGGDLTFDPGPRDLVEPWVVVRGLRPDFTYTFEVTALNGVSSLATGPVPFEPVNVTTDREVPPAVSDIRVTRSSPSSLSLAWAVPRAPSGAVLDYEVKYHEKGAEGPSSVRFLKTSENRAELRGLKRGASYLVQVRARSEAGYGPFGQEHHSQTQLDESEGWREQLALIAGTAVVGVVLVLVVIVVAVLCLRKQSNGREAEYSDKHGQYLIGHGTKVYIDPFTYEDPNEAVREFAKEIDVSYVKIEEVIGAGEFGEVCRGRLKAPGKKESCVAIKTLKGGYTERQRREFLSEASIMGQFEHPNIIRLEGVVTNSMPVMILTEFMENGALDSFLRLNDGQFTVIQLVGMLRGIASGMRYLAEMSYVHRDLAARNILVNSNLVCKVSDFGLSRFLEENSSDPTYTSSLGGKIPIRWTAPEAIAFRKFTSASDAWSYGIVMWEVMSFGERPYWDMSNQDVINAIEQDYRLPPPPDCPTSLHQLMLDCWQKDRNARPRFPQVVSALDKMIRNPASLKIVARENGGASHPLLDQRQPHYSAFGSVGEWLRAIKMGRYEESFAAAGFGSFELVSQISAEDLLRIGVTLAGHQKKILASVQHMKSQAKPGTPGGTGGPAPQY
T2 sequence (Q96D53 whole entry): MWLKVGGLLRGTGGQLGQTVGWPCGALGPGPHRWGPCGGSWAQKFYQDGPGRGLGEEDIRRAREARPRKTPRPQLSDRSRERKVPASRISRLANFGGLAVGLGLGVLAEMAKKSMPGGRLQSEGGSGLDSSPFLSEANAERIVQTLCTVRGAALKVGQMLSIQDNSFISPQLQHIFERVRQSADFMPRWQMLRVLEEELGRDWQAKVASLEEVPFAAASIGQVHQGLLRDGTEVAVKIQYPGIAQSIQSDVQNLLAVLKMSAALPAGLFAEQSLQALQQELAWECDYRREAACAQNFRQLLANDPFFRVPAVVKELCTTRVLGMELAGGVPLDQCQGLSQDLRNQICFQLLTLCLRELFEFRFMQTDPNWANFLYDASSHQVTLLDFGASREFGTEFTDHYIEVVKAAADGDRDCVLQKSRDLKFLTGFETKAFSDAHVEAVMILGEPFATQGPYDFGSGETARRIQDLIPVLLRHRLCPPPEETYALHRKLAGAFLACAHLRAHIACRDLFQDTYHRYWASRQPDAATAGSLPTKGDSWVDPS
T9 sequence (P29323 19-1055): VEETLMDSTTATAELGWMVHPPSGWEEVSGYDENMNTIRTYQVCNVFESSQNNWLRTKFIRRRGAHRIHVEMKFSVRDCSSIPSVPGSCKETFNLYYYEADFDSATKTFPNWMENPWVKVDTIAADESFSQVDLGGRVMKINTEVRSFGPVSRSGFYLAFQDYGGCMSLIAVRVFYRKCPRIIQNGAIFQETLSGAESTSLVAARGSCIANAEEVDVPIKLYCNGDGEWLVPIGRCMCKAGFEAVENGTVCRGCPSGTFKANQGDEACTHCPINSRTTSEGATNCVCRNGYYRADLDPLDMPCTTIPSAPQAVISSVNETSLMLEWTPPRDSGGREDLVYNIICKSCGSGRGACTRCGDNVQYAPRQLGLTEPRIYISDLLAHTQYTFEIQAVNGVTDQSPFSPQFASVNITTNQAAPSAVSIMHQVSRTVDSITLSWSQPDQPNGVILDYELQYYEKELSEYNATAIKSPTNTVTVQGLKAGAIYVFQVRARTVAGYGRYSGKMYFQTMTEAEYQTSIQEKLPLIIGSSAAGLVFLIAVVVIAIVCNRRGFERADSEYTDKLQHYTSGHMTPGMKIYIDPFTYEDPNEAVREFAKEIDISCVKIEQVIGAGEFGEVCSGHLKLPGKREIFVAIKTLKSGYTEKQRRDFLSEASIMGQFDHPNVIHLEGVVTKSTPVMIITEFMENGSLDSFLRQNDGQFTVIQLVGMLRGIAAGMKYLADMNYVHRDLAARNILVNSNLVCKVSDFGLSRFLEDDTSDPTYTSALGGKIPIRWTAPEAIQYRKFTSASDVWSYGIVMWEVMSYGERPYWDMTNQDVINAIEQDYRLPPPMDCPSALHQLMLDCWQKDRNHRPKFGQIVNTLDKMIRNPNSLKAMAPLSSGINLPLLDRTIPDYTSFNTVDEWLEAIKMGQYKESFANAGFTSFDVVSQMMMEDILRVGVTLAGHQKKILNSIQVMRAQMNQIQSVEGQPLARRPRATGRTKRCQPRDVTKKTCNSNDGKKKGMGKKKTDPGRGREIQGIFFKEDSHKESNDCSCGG

C#Cc1cccc(Nc2ncnc3cc(OC)c(OCCCN4CCOCC4)cc23)c1 [NRC-2694, N-(3-ethylnylphenyl)-7-methoxy-6-[3-(4-morpholinyl)propoxy]-4-quinazolinamine]
% Ctrl @ 10000 nM (ABL1 (H396P)): 34 % Ctrl
% Ctrl @ 10000 nM (ADCK4): 14 % Ctrl
% Ctrl @ 10000 nM (AXL): 25 % Ctrl
% Ctrl @ 10000 nM (CAMK2A): 63 % Ctrl
% Ctrl @ 10000 nM (CDK11): 87 % Ctrl
% Ctrl @ 10000 nM (CSNK1D): 25 % Ctrl
% Ctrl @ 10000 nM (EGFR (E746-A750del)): 0 % Ctrl
% Ctrl @ 10000 nM (EGFR (L861Q)): 0 % Ctrl
% Ctrl @ 10000 nM (EPHB2): 83 % Ctrl
% Ctrl @ 10000 nM (EPHB4): 39 % Ctrl
% Ctrl @ 10000 nM (FER): 94 % Ctrl
% Ctrl @ 10000 nM [1]: 15 % Ctrl
% Ctrl @ 10000 nM (LIMK1): 62 % Ctrl
% Ctrl @ 10000 nM (MEK1): 50 % Ctrl
% Ctrl @ 10000 nM (MST4): 29 % Ctrl
% Ctrl @ 10000 nM (NDR2): 74 % Ctrl
% Ctrl @ 10000 nM (PRKCQ): 83 % Ctrl
% Ctrl @ 10000 nM (PRKG2): 40 % Ctrl
% Ctrl @ 10000 nM (RET (V804L)): 81 % Ctrl
% Ctrl @ 10000 nM (STK35): 52 % Ctrl
% Ctrl @ 10000 nM (SYK): 56 % Ctrl
% Ctrl @ 10000 nM (TNK1): 41 % Ctrl
